Where “and” joins values, the source holds several entries; their conditions need not be identical. Equal values may be shown once. Read-outs that look alike come from different tables or passages of the source. Each block holds one molecule with its values, some of them ahead of it.
Tests used:
HsHGPRT = molecular target: T1, HsHGPRT (Homo sapiens, UniProt P00492); assay: Inhibition analysis of HsHGPRT, IMPDH-coupled assay; format: biochemical
T1 sequence (P00492 1-218): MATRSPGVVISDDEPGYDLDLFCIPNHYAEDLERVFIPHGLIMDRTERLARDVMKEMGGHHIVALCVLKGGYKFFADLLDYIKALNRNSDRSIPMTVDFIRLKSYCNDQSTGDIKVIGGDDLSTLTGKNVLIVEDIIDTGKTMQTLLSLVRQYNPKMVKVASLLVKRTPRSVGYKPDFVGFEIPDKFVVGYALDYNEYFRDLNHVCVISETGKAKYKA

T. cruzi HGPRT [1] = assay: Screening of T. cruzi HGPRT inhibitors; format: biochemical, Trypanosoma cruzi; details: selectivity index: Ki of HsHGPRT divided by appKi of T. cruzi HGPRT
T. cruzi HGPRT [2] = molecular target: T2, T. cruzi HGPRT (Trypanosoma cruzi, UniProt Q4DGA3); assay: Screening of T. cruzi HGPRT inhibitors; format: biochemical
T2 sequence (Q4DGA3 1-221): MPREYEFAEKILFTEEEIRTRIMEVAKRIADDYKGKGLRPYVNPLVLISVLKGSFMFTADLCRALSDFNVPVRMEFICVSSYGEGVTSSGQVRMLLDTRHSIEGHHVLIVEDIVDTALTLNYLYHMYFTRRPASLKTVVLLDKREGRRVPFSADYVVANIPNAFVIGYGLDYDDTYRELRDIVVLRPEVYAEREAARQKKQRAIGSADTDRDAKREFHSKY

PfHGXPRT = molecular target: T3, PfHGXPRT (Plasmodium falciparum, UniProt P20035); assay: Inhibition analysis of PfHGXPRT, IMPDH-coupled assay; format: biochemical
T3 sequence (P20035 1-231): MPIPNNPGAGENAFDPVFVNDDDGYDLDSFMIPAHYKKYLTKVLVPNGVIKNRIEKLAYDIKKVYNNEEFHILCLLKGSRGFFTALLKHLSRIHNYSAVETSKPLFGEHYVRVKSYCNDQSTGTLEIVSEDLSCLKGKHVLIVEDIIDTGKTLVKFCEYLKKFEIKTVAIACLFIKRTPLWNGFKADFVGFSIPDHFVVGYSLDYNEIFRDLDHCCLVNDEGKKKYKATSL

TcA = molecular target: T4, TcA (Trypanosoma cruzi, UniProt Q4DRC4); details: cited from earlier work
T4 sequence (Q4DRC4 1-241): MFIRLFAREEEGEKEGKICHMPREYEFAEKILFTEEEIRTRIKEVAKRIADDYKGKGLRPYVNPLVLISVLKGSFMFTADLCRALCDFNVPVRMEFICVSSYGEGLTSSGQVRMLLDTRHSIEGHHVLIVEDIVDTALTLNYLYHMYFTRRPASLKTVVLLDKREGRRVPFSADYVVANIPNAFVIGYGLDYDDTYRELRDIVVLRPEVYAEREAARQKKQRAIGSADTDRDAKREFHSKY

TcC [3] = molecular target: T5, TcC (Trypanosoma cruzi, UniProt Q4DGA3); assay: Isothermal titration calorimetry; format: binding
T5 sequence (Q4DGA3 1-221): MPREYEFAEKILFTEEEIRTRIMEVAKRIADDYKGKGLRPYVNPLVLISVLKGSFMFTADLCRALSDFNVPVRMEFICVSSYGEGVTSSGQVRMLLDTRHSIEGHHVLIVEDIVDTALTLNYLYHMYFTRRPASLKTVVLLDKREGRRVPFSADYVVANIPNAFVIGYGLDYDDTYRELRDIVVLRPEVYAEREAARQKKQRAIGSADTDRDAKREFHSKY

TcC [4] = molecular target: T5, TcC; assay: Product inhibition studies of TcC; format: biochemical
[5] = substrate: O=c1[nH]cnc2nc[nH]c12; assay: purified protein, by the assay type; details: other: biosynthetic reaction, pH 8.3
[6] = substrate: Nc1nc2nc[nH]c2c(=O)[nH]1; assay: Steady-state kinetics of TcC, biosynthetic; format: biochemical, Trypanosoma cruzi; details: other: biosynthetic reaction, pH 8.3
[7] = substrate: Oc1ncnc2[nH]ncc12; assay: Steady-state kinetics of TcC, biosynthetic; format: biochemical, Trypanosoma cruzi; details: other: biosynthetic reaction, pH 8.3
[8] = substrate: Nc1nc2nc[nH]c2c(=O)[nH]1; assay: Steady-state kinetics of TcA, biosynthetic; format: biochemical, Trypanosoma cruzi; details: other: biosynthetic reaction, pH 8.3
[9] = HPP-MP biosynthesis, fixed PRPP (1 mM), Lineweaver–Burk plots
[10] = GMP biosynthesis, variable PRPP (20–215 μM), fixed Gua (70 μM)
[11] = IMP biosynthesis, variable PRPP (20–215 μM), fixed Hx (60 μM)

Molecule: CN(Cc1c[nH]c2c(=O)[nH]cnc12)[C@H](CO)CCP(=O)(O)O.N.N [Compound 4]
- Ki (HsHGPRT): 4.6 ± 0.07 µM
- SI (T. cruzi HGPRT [1]): 3.2
- Ki (T. cruzi HGPRT [2]): 1.44 ± 0.03 µM
- Ki (PfHGXPRT): 0.108 ± 0.03 µM

Molecule: Oc1ncnc2[nH]ncc12 [HPP, 4-hydroxypyrazolo(3,4-d)pyrimidine, reference compound]
- Km (TcA; [9]): 710 ± 130 µM
- kcat (TcA; [9]): 0.34 ± 0.03 ^c^, ^d s^–1

- binding to free TcC enzyme (TcC [3]; ligand concentrations 500- and 900-fold higher than Km): could not be detected
Molecule: O=c1[nH]cnc2nc[nH]c12 [Hx, hypoxanthine]

- Ki (TcC [4]): 0.8 ± 0.1 µM
- Kd (TcC [3]): 142 ± 1 µM
- ΔG° (TcC [3]; apo TcC, 25 °C, pH 8.0): –5247 ± 5 cal mol^–1
- ΔH° (TcC [3]; apo TcC, 25 °C, pH 8.0): 5160 ± 450 cal mol^–1
- –TΔS° (TcC [3]; apo TcC, 25 °C, pH 8.0): –10,410 ± 450 cal mol^–1
- Ka (TcC [3]; association constant, apo TcC, 25 °C, pH 8.0): 7070 ± 60 M^–1
- N (TcC [3]; number of binding sites per monomer, apo TcC, 25 °C, pH 8.0): 1.2 ± 0.2
Molecule: O=P(O)(O)OC[C@H]1O[C@H](OP(=O)(O)OP(=O)(O)O)[C@H](O)[C@@H]1O [PRPP, 5-phospho-α-D-ribose 1-diphosphate]
- Km (TcA; [10]): 32 ± 5 µM
- kcat (TcA; [10]): 32 ^b s^–1
- Km (TcA; [11]): 31 ± 5 µM
- kcat (TcA; [11]): 23 ^b s^–1

B1: TcC (Trypanosoma cruzi strain CL Brener) (protein)
chain: MPREYEFAEKILFTEEEIRTRIMEVAKRIADDYKGKGLRPYVNPLVLISVLKGSFMFTADLCRALSDFNVPVRMEFICVSSYGEGVTSSGQVRMLLDTRHSIEGHHVLIVEDIVDTALTLNYLYHMYFTRRPASLKTVVLLDKREGRRVPFSADYVVANIPNAFVIGYGLDYDDTYRELRDIVVLRPEVYAEREAARQKKQRAIGSADTDRDAKREFHSKY
- kcat/Km ([5]; TcC): 1 × 10^5 M^–1 s^–1 and 2.1 × 10^6 M^–1 s^–1
- kcat/Km [6]: 1 × 10^5 M^–1 s^–1 and 2.5 × 10^6 M^–1 s^–1
- kcat/Km [7]: 10^3 M^–1 s^–1

B2: TcA (Trypanosoma cruzi strain CL Brener) (protein)
chain: MFIRLFAREEEGEKEGKICHMPREYEFAEKILFTEEEIRTRIKEVAKRIADDYKGKGLRPYVNPLVLISVLKGSFMFTADLCRALCDFNVPVRMEFICVSSYGEGLTSSGQVRMLLDTRHSIEGHHVLIVEDIVDTALTLNYLYHMYFTRRPASLKTVVLLDKREGRRVPFSADYVVANIPNAFVIGYGLDYDDTYRELRDIVVLRPEVYAEREAARQKKQRAIGSADTDRDAKREFHSKY
- kcat/Km ([5]; TcA): 1 × 10^5 M^–1 s^–1
- kcat/Km [8]: 1 × 10^5 M^–1 s^–1 and 2.5 × 10^6 M^–1 s^–1

Source: paper PMC9536471 (Biochemistry, 2022)
